Data on 1 molecule can be found in EP0410244A1, “Leukotriene antagonists” (BAYER AG, priority 1989, dated 1991).

This assay has as its system LTC₄ induced contraction of guinea-pig ileum. The assay is described as follows: Inhibition of leukotriene (LTC₄) induced contraction of guinea-pig ileum in vitro. The assay is classed as cell-based, guinea-pig (Male Dunkin-Hartley strain). Conditions: Cavia porcellus. How it is done: The leukotriene antagonist activity of the compounds of this invention is measured by the ability of the compounds to inhibit the leukotriene induced contraction of guinea-pig ileum in vitro as described below.
Five (5) centimeter longitudinal strips of guinea-pig ileum (Male Dunkin-Hartley strain) were bathed in modified Tyrodes buffer, containing 3µM indomethacin, in jacketed 10 mL tissue baths at 37°C and continuously aerated with 95% O₂/5% CO₂. The tissues were connected via cotton sutures to isotonic transducers. The tissues were equilibrated for 60 minutes and 100µM histamine was added to determine the maximal response of the tissues. This was removed by washout to give a steady baseline. Then the test compound, or vehicle control, was added cumulatively in half-log units until a bath concentration of 10µM was reached.
After a further equilibration period of 15 minutes, a concentration response curve to the reference agonist (LTD₄ or LTC₄) was generated. All determinations were carried out in triplicate and observations normalised against the maximal leukotriene response. Least-squares linear regression analysis was then used to calculate the concentration of leukotriene needed to elicit 50% of the maximum response and defined as the EC₅₀. […]
All compounds were measured against LTD₄ as the reference agonists except the compound of Example 65 which were measured against LTC₄.

`CCCCC/C=C\C\C=C/C=C/C=C/[C@@H](Sc1ccc(C(=O)O)cc1)[C@@](C)(O)CCCC(=O)O` [Example 65, 5S-Hydroxy-5-methyl-6R-(4-carboxyphenylthio)eicosa-7E,9E,11Z,14Z-tetraenoic Acid] showed a Kb of 0.398 µM.
